Here are results for 13 compounds from patent US11014871B2, ““Multi-target” compounds with inhibitory activity towards histone deacetylases and tubulin polymerisation, for use in the treatment of cancer” (UNIVERSITE PARIS-SUD, priority 2016, dated 2021).

Structures are written as SMILES. Entries after “also recorded” stand apart in the source; their conditions may differ. Read-outs that look alike come from different tables or passages of the source.

In one data set the test system is many human cancer lines. The following applies: many human cancer lines and resistant lines; read-out: cytotoxic IC50; cited from earlier work.
A further data set concerns Tubulin. Nature of the data set: Inhibition of tubulin polymerisation (ITP). It counts as biochemical, sheep. As to conditions: tubulin 10 μM; inhibition of maximum assembly rate. The procedure:
To verify whether the antiproliferative activities of novel molecules 2 and 3 correlate with their anti-tubulin effects, their ability to inhibit tubulin polymerisation into microtubules was measured in vitro. Tubulin was purified from sheep brains according to the Shelanski method by two assembly-disassembly cycles. The stock solution (15-20 mg/mL), stored at −196° C., is thawed and diluted in the assembly buffer (0.1 M MES, 0.5 mM MgCl2, 1 mM EGTA, and 1 mM GTP, pH 6.6) to a final concentration of 10 μM. Tubulin assembly was monitored by fluorescence on 96-well plates according to the method of Barron et al. The tubulin solution (10 μM, 100 μL per well) was supplemented with inhibitor (DMSO, 1 μL) and incubated for 45 min at room temperature. GTP (1 mM final) was then added, the solution was rapidly mixed and the fluorescence (λex=350 nm, λem=440 nm) was measured on a Wallac Victor fluorimeter (Perkin Elmer). Fifty-percent inhibition of the maximum assembly rate (IC50) was determined in duplicate or triplicate on 10 concentrations flanking the IC50. For comparison, deoxypodophyllotoxin and isoCA-4 were used as positive controls.

Another data set deals with HCT116. Nature of the data set: Cytotoxic activity on HCT116. It counts as cell-based. The following applies: for IC50: Homo sapiens, read-out: HCT116 IC50; for antiproliferative / cytotoxic activity in words: comment on Table 1. The method, then: (§1) The cytotoxic activity of the prepared compounds was evaluated on various human cancer cell lines. The selected line was incubated at 37° C. in the presence of one of the novel compounds, added to the culture medium at various concentrations.

A further data set concerns U87. Nature of the data set: Cytotoxic activity on U87. As to conditions: Homo sapiens, U-87 MG; 72 hours of incubation; read-out: Cytotoxicity IC50 U87. It counts as cell-based. The procedure:
as §1

Another data set has as its system SOJ6. Nature of the data set: Cytotoxic activity on SOJ6. The format is cell-based. The following applies: Homo sapiens; 72 hours of incubation; read-out: Cytotoxicity IC50 SOJ6. The procedure: as §1
The next data set has as its target T1, HDAC8 (Homo sapiens, UniProt Q9BY41).
T1 sequence (Q9BY41 1-377): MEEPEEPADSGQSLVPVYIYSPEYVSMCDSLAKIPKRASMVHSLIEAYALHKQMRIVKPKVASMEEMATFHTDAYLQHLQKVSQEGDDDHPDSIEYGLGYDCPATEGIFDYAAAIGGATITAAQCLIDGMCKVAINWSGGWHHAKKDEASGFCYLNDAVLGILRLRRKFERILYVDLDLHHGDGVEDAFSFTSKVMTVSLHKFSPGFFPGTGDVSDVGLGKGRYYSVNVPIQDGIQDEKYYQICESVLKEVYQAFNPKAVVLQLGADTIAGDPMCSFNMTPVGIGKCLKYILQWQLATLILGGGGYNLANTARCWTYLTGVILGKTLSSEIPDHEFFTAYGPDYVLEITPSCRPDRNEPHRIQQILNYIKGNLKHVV
Nature of the data set: Inhibition of HDAC8 activity. The format is biochemical.

In the next data set the test system is HDACs 1 to 11. The experiment in a line: Inhibition of HDACs 1 to 11 (panel). It counts as biochemical. The following applies: percentage inhibition at test concentration of 1.0^−5 M.
A further data set deals with K562R. Nature of the data set: Cytotoxic activity on K562R. The following applies: Homo sapiens, K-562R; 72 hours of incubation; imatinib-resistant. The format is cell-based. The method, then:
as §1

The next data set deals with PC3. The experiment in a line: Cytotoxic activity on PC3. The format is cell-based. As to conditions: Homo sapiens, PC-3; 72 hours of incubation; read-out: Cytotoxicity IC50 PC3. The method, then:
as §1

The subject of a further data set is MCF7. Nature of the data set: Cytotoxic activity on MCF7. The format is cell-based. As to conditions: Homo sapiens, 72 hours of incubation, read-out: Cytotoxicity IC50 MCF7. The method, then: as §1
For a further data set, the system named is MiaPaCa 2. The experiment in a line: Cytotoxic activity on MiaPaCa 2. It counts as cell-based. As to conditions: Homo sapiens, MIA PaCa-2; 72 hours of incubation; read-out: Cytotoxicity IC50 MiaPaCa 2. The method, then:
as §1

For a further data set, the system named is other human tumour lines. The experiment in a line: Cytotoxicity to other human tumour lines (panel). It counts as cell-based. As to conditions: A549, K562, MCF7, PC3, U87, U2OS, SOJ6, BxPC-3, MiaPaCa-2, read-out: IC50 values across other human tumour lines. The procedure:
as §1

The test system of the next data set is U2OS. The experiment in a line: Cytotoxic activity on U2OS. The format is cell-based. The following applies: Homo sapiens, 72 hours of incubation, read-out: Cytotoxicity IC50 U2OS. The procedure: as §1
For a further data set, the system named is BxPC3. Nature of the data set: Cytotoxic activity on BxPC3. The format is cell-based. As to conditions: Homo sapiens, BXPC-3; 72 hours of incubation; read-out: Cytotoxicity IC50 BxPC3. The method, then:
as §1

The test system of the next data set is A549. Nature of the data set: Cytotoxic activity on A549. The format is cell-based. As to conditions: Homo sapiens, 72 hours of incubation, read-out: Cytotoxicity IC50 A549. The procedure: as §1
In a further data set the test system is K562. Nature of the data set: Cytotoxic activity on K562. The following applies: Homo sapiens, 72 hours of incubation, read-out: Cytotoxicity IC50 K562. It counts as cell-based. The method, then: as §1
The next data set concerns the target T2, HDAC11 (Homo sapiens, UniProt Q96DB2).
T2 sequence (Q96DB2 1-347): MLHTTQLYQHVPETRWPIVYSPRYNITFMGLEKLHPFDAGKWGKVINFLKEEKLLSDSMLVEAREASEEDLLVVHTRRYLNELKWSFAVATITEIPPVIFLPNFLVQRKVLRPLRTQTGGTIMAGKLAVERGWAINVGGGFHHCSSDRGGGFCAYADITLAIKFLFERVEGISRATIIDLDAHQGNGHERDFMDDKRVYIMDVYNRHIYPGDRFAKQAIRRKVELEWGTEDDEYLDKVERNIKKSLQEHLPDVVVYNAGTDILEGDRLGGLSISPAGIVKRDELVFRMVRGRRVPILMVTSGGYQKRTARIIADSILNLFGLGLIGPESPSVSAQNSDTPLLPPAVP
Nature of the data set: Inhibition of HDAC11 activity. It counts as biochemical. The following applies: FIG. 5.

Setting [1] is: HCT-116, 72 hours of incubation.

In the case of `COc1ccc(/C=C\c2cc(OC)c(OC)c(OC)c2)cc1O` [CA-4, combretastatin A-4], in the data set with many human cancer lines, the concentration for half-maximal inhibition (IC50) was 1 to 2 nM.

`C=C(c1cc(OC)c(OC)c(OC)c1)c1ccc(OC)c(C(=O)NO)c1` [Compound 1, N-Hydroxy-2-methoxy-5-(1-(3,4,5-trimethoxyphenyl)vinyl)benzamide]: the IC50 in the data set on Tubulin was 20 ± 1.2 µM; in the data set with HCT116 (setting [1]), 233 ± 22 nM.

Take `C=C(c1ccc(OC)c(/C=C/C(=O)NO)c1)c1cc(OC)c(OC)c(OC)c1` [Compound 2, (E)-N-Hydroxy-3-(2-methoxy-5-(1-(3,4,5-trimethoxyphenyl)vinyl)phenyl)acrylamide]: the half-maximal inhibitory concentration (IC50) with U87 is 1.6 nM; with SOJ6, 6.8 nM; at HDAC8, 340 nM; in the data set on Tubulin it was 1.6 µM; in the data set on K562R it was 1.6 nM; in the data set on PC3, 2.4 nM. For the same compound, the IC50 in the data set with MCF7 was 2 nM; in the data set with MiaPaCa 2, 5.1 nM; with other human tumour lines, 1.6 to 6.8 nM; in the data set with U2OS, 1.9 nM; with BxPC3, 2.9 nM; in the data set on A549 it was 1.7 nM. Besides, the IC50 with HCT116 (setting [1]) was 2.5 nM; in the data set on K562, 1.6 nM. Further, in the data set on HDACs 1 to 11, the “selective inhibitory activity among HDACs 1 to 11” value is “selective inhibitory activity against HDAC8; also recorded: selective activity for HDAC8 and HDAC11”.

With `C=C(c1ccc(OC)c(C#CCCC(=O)NO)c1)c1cc(OC)c(OC)c(OC)c1` [Compound 3, N-Hydroxy-5-(2-methoxy-5-(1-(3,4,5-trimethoxyphenyl)vinyl)phenyl)pent-4-ynamide], in the data set with HDACs 1 to 11, the “selective inhibitory activity among HDACs 1 to 11” value is “selective inhibitory activity against HDAC8 and HDAC11; also recorded: selective activity for HDAC8 and HDAC11”. For the same compound, the IC50 came to 1.7 µM in the data set with Tubulin, 33 nM in the data set on K562R, 11 µM against HDAC11 and 35 nM with HCT116 (setting [1]). Also, the “antiproliferative / cytotoxic activity in words” value with HCT116 is given as “cytotoxic at nanomolar concentrations”.

As to `C=C(c1ccc(OC)c(C#CCCCC(=O)NO)c1)c1cc(OC)c(OC)c(OC)c1` [Compound 4, N-Hydroxy-6-(2-methoxy-5-(1-(3,4,5-trimethoxyphenyl)vinyl)phenyl)hex-5-ynamide], the half-maximal inhibitory concentration (IC50) in the data set with Tubulin is 18 ± 1.2 µM; in the data set with HCT116 (setting [1]) it was 372 ± 5 nM.

With `C=C(c1cc(OC)c(OC)c(OC)c1)c1ccc(OC)cc1/C=C/C(=O)NO` [Compound 8, (E)-N-Hydroxy-3-(5-methoxy-2-(1-(3,4,5-trimethoxyphenyl)vinyl)phenyl)acrylamide], the “selective inhibitory activity among HDACs 1 to 11” value in the data set with HDACs 1 to 11 was “selective inhibitory activity against HDAC6, HDAC8 and HDAC11; also recorded: selective activity for HDAC6, HDAC8 and HDAC11”. Besides, the IC50 with Tubulin was 2.1 ± 0.4 µM; with HCT116 (setting [1]), 2 ± 0.1 nM.

As to `C=C(c1cc(OC)c(OC)c(OC)c1)c1ccc2c(c1)c(/C=C/C(=O)NO)cn2C` [Compound 11, (E)-N-Hydroxy-3-(1-methyl-5-(1-(3,4,5-trimethoxyphenyl)vinyl)-1H-indol-3-yl)acrylamide], the “selective inhibitory activity among HDACs 1 to 11” value with HDACs 1 to 11 was “selective inhibitory activity against HDAC6 and HDAC8; also recorded: selective activity for HDAC6 and HDAC8”. Further, the IC50 in the data set with Tubulin was found to be 3.7 ± 0.5 µM; in the data set on HCT116 (setting [1]), 2.2 ± 0.26 nM. Moreover, the “antiproliferative / cytotoxic activity in words” value in the data set with HCT116 was “excellent antiproliferative activity”.

Regarding `C=C(c1cc(OC)c(OC)c(OC)c1)c1ccc2c(c1)cc(/C=C/C(=O)NO)n2C` [Compound 12, (E)-N-Hydroxy-3-(1-methyl-5-(1-(3,4,5-trimethoxyphenyl)vinyl)-1H-indol-2-yl)acrylamide], the “selective inhibitory activity among HDACs 1 to 11” value in the data set with HDACs 1 to 11 was “selective inhibitory activity against HDAC6, HDAC8 and HDAC11; also recorded: selective activity for HDAC6, HDAC8 and HDAC11”. The half-inhibitory concentration (IC50) was determined as 5.4 ± 1.2 µM in the data set with Tubulin and 12 ± 2.5 nM in the data set on HCT116 (setting [1]). In the data set on HCT116, the “antiproliferative / cytotoxic activity in words” value is recorded as “excellent antiproliferative activity”.

For `C=C(c1cc(OC)c(OC)c(OC)c1)c1ccc(OC)c(/C=C/C(=O)NO)n1` [Compound 17, (E)-N-Hydroxy-3-(3-methoxy-6-(1-(3,4,5-trimethoxyphenyl)vinyl)pyridin-2-yl)acrylamide], the figures for the IC50 with Tubulin and in the data set with HCT116 (setting [1]) were 7.5 ± 1.5 µM and 37.2 ± 0.6 nM, respectively. Also, the “antiproliferative / cytotoxic activity in words” value in the data set with HCT116 is recorded as “excellent antiproliferative activity”.

Turning to `C=C(c1cc(OC)c(OC)c(OC)c1)c1ccc2c(c1)c(C(=O)NO)cn2C` [Compound 25, N-Hydroxy-1-methyl-5-(1-(3,4,5-trimethoxyphenyl)vinyl)-1H-indole-3-carboxamide], the IC50 was 7.3 ± 3.3 µM with Tubulin and 30 ± 1.5 nM in the data set with HCT116 (setting [1]). The “antiproliferative / cytotoxic activity in words” value in the data set with HCT116 is “excellent antiproliferative activity”.

Consider `C=C(c1cc(OC)c(OC)c(OC)c1)c1ccc2c(c1)cc(C(=O)NO)n2C` [Compound 43, N-Hydroxy-1-methyl-5-(1-(3,4,5-trimethoxyphenyl)vinyl)-1H-indole-2-carboxamide], for which the half-inhibitory concentration (IC50) in the data set on Tubulin turned out to be 81 ± 15 µM; with HCT116 (setting [1]), 36 ± 4 nM. The “antiproliferative / cytotoxic activity in words” value with HCT116 is on record as “excellent antiproliferative activity”.

For `C=C(c1cc(OC)c(OC)c(OC)c1)c1ccc2c(ccn2CCC(=O)NO)c1` [Compound 44, N-Hydroxy-3-(5-(1-(3,4,5-trimethoxyphenyl)vinyl)-1H-indol-1-yl)propanamide], the results for the IC50 with Tubulin and with HCT116 (setting [1]) were 22 ± 2 µM and 393 ± 4.1 nM, respectively.

As for `C=C(c1ccc(OC)c(O)c1)c1cc(OC)c(OC)c(OC)c1` [isoCA-4, Isocombretastatin A-4, reference compound], the 50% inhibitory concentration (IC50) in the data set on Tubulin was 1.8 ± 0.4 µM; in the data set with HCT116 (HCT-116, 72 h), 2 nM.

The term IC50 denotes the concentration at which inhibition is half-maximal.
